# Data: PMC10587869, “Deciphering Structural Determinants Distinguishing Active from Inactive Cell-Penetrating Peptides for Cytosolic mRNA Delivery” (Bioconjugate Chemistry, 2023)
# Positions of bridges follow the written chain, without caps; N, C: chain ends. Non-standard residues stand in square brackets, D forms with d. Residues, ends and D or L forms follow the SMILES beside them. No end group written: not given here. *: point of attachment. Stearoyl = CCCCCCCCCCCCCCCCCC(=O)*; Orn = NCCC[C@H](N)C(=O)O
# Columns and labels:
# [1] = Heparin-mediated polyplex decomplexation assay (QuantiFluor RNA); type: physicochemical; settings: for stability of polyplexes against heparin-induced decomplexation: N/P 5, TE buffer pH 7.5, 37 °C 90 min, released mRNA by QuantiFluor RNA dye, Figure 7
# Experimental: For testing the stability of mRNA polyplexes, a polyanion decomplexation assay, mediated by the polyanionic heparin (heparin sodium salt from porcine intestinal mucosa, Cat. No. H3149-100 KU, Sigma-Aldrich) was performed. mRNA polyplexes were freshly prepared with uncapped SecNLuc mRNA (RIBOPRO), as described in the section mRNA Nanoparticle Formation. Following polyplex formation, all samples were incubated for at least 30 min at room temperature. Importantly, separate stock solutions of heparin were made to ensure an equal volume across conditions regardless of heparin concentration. For decomplexation, 5 μL of 10× polyplexes were diluted in RNase-free TE-buffer at pH 7.5 (Promega, Cat. No. E260A) supplemented with an equal volume of heparin across conditions to a total volume of 50 μL in a 384-well plate (Greiner Bio-One, Cat. No. 781101). All samples were quickly spun down before incubation at 37 °C for 90 min. The QuantiFluor RNA System (Promega, Cat. No. E3310) was used with a 1:2000 dilution of RNA-binding dye for all tested conditions to detect released mRNA. For quantification, a calibration curve with uncapped SecNLuc mRNA was made, spanning from 0.19 ng mRNA/well to 50 ng mRNA/well. For detection of released mRNA, the dye was excited at 485 nm, and emission was collected at 535 nm using the VICTOR X3Multilabel Plate Reader (PerkinElmer)
# Data analysis was performed using GraphPad Prism (GraphPad Software, version 8.4.2, San Diego, CA, USA). Data are presented as means ± standard deviation (SD) unless stated otherwise. Means were calculated by first averaging the technical replicates, for which outliers were identified using Grubbs’ test, followed by averaging the biological replicates. Before statistical analysis, all data were checked for normal distribution with a Shapiro–Wilk test. Statistical analysis was done using one- or two-way analysis of variance (ANOVA). Multiple comparisons were corrected using Tukey’s test with 95% confidence intervals. For the mRNA standard curve used in heparin decomplexation assays, the coefficient of variation was determined both in the standards and in samples and was ≤20%. The standard curve was fitted using a sigmoidal four-parameter logistic curve. The standard curve was back fitted with ±10% accuracy to verify the correctness of the fit. The signals from samples were blanked with the appropriate solution (TE buffer) before calculating interpolations. p > 0.05 was considered not significant, and p values were reported using the GraphPad Prism style (*p ≤ 0.05, **p ≤ 0.01, ***p ≤ 0.001, and ****p ≤ 0.0001).
# [2] = system: MC3T3 cells; experiment: Resazurin assay of metabolic activity after mRNA transfection; type: cell-based, murine; design: concentration or dose not given beside the values; settings: normalized to untreated
# Experimental: (§1) One day before mRNA transfections, 10 000 MC3T3 cells in 100 μL were seeded in 96-well plates (Greiner Bio-One Cat. No. 655180) or 20 000 cells in 200 μL in μ-slide eight-well chambers (Ibidi, Gräfelfing, Germany). These seeding densities ensured confluency between ∼70 and 90% on the day of transfection. mRNA transfections were performed by removing the complete medium from the wells and replacing it with mRNA nanoparticles diluted 10 times in complete medium. Cells were exposed to mRNA nanoparticles for 2 h at 37 °C, 5% CO2, in a humidified incubator. For some experiments, cells were stained with 200 μL of 1 μM CellTrace yellow (Thermo Fisher Scientific, Cat. No. C34567) directly after the nanoparticle incubation, according to the manufacturer’s instructions. Regardless of the tested N/P ratio or type of nanoparticle, mRNA inputs were equalized across conditions, resulting in 107 ng/well for luciferase assays in 96-well plate formats and 214 ng/well for confocal microscopy experiments. […] For untreated controls, complete cell culture medium was added and refreshed as often as in the experimental conditions.
# (§2) The resazurin-based assay was performed essentially as described previously.[61],[62] In brief, the effect of different peptide-mRNA complexes on the metabolic activity of cells was measured 24 h post-transfection. Resazurin sodium salt (Sigma-Aldrich, Cat No. R7017) was dissolved in PBS and diluted 100 times to a final concentration of 100 μg/mL in complete medium. After 2 h of incubation with cells at 37 °C, fluorescence was measured using the VICTOR X3Multilabel Plate Reader (PerkinElmer, Waltham, MA, USA). After briefly shaking the plate, resazurin was excited at 485 nm, and emission was collected from 570 to 620 nm. All samples were blanked by the average signal of cell-free wells. Blanked data were normalized to untreated conditions per cell type.
# [3] = system: MC3T3 cells; experiment: Cellular uptake of Cy5-eGFP mRNA polyplexes, live-cell confocal microscopy; type: cell-based, murine; settings: for ratio of Poly hLF-x vs Mono-hLF-x, Corrected Total Cellular Fluorescence (Cy5): Cy5-eGFP mRNA polyplexes, 2 h post-transfection, n = 5 fields of view per condition; for effect of oligomerization on uptake: Cy5-labeled mRNA, polymerized vs monomeric, Figure 5, Figure S5
# Experimental: Peptide-mRNA polyplexes were formulated as previously described.[40],[41] In short, two separate stock solutions of mRNA and peptide were prepared in MQ and simultaneously dispensed with electronically dispensing pipettes (E4 Electronic Pipette, LTS E4-100XLS+, Mettler-Toledo Rainin, LLC, Oakland, CA, USA) at a flow rate of 11 mL min^–1. All polyplexes were formed at a concentration of at least 10-fold the final intended concentration for transfections.
# as §1
# Before microscopy, complete medium containing phenol red was replaced with an equal volume of phenol red-free and HEPES-formulated Opti-MEM (Gibco). The uptake of Cy5-eGFP mRNA-formulated nanoparticles was assessed 2 h post-transfection, and eGFP expression was assessed 24 h post-transfection. Live-cell imaging was performed using a Leica TCS SP8 SMD (Leica Microsystems, Mannheim, Germany) with an HC PL APO CS2 63×/1.20 water objective and a temperature-controlled stage at 36.5 °C. eGFP was excited at 488 nm (emission: 500–550 nm). CellTrace yellow was excited at 555 nm (emission: 570–620 nm), and Cy5 was excited at 633 nm (emission: 650–690 nm). All laser lines were generated by a white-light laser, and emissions were detected with hybrid detectors. All channels were sequentially acquired to avoid crosstalk at a bit depth of 12. Except for the LMM eGFP conditions (reduced gain), equal acquisition settings (pixel size, pinhole, laser power, and gain) per fluorophore were used within the experiments.
# Quantification of the Cy5 fluorescence was performed as previously described.[59],[60] In brief, five separate images (unless stated otherwise) containing approximately 10 cells per image were analyzed using ImageJ (version 1.53f51). A square mask of 184.52 μm^2 was used to quantify the raw integrated density (sum of all pixels in a region of interest). Importantly, cell confluencies ranged from ∼80–95%, ensuring minimal impact of cell density on total fluorescence values. The brightness and contrast of the images were adjusted to find a cell-free region to determine background fluorescence. Then, a circle was drawn to measure the background fluorescence. To obtain the corrected total cellular fluorescence (CTCF), the area (in pixels) was multiplied by the mean gray value of the background and subsequently subtracted from the raw integrated density.
# [4] = system: HeLa cells; experiment: Resazurin assay of metabolic activity after mRNA transfection; type: cell-based, human; settings: normalized to untreated
# Experimental: as §1, §2
# [5] = MC3T3, N/P 3, resazurin 24 h post-transfection
# [6] = N/P 5, resazurin 24 h post-transfection
# [7] = MC3T3, N/P 5, resazurin 24 h post-transfection
compound,measurement,setting,value
"KCFQWQRNMRKVRGPPVSCIKR (disulfide 2-19 (inferred)) [Poly hLF-WT, hLF-WT oligomerized through intermolecular disulfide bonds]",stability of polyplexes against heparin-induced decomplexation,[1],significantly lower release of mRNA
CC(C)C[C@@H]1NC(=O)[C@H](C)NC(=O)[C@H](CCCN)NC(=O)[C@H](C(C)C)NC(=O)[C@H](CCCN)NC(=O)[C@H](CCCN)NC(=O)[C@H](CC(C)C)NC(=O)[C@H](CC(N)=O)NC(=O)[C@H](CCCN)NC(=O)[C@H](CC(C)C)NC(=O)[C@H](Cc2c[nH]c3ccccc23)NC(=O)[C@H](CCC(N)=O)NC(=O)[C@H](Cc2ccccc2)NC(=O)[C@@H](NC(=O)[C@@H](N)CCCN)CSSC[C@@H](C(=O)N[C@@H](CC(C)C)C(=O)N[C@@H](CCCN)C(=O)N[C@@H](CCCN)C(N)=O)NC(=O)[C@H](CO)NC(=O)[C@H](C(C)C)NC(=O)[C@H](CC(C)C)NC1=O [Mono-hLF-v3] (H-[Orn]CFQWL[Orn]NL[Orn][Orn]V[Orn]ALLVSCL[Orn][Orn]-NH2; disulfide 2-19),relative metabolic activity,[2]; [5],125%
"OCFQWQONMOOVOGPPVSCIOO (disulfide) [poly-hLF-Orn, hLF-Orn oligomerized through intermolecular disulfide bonds]",difference in heparin decomplexation,"[1]; N/P 1 and 3, low or high heparin amounts, Figure S8",no difference
"OCFQWQHNMOHVHGPPVSCIOH [hLF-His&Orn, hLF analog with positively charged residues replaced by histidines and ornithines]","ratio of Poly hLF-x vs Mono-hLF-x, Corrected Total Cellular Fluorescence (Cy5)",[3],2.42 x
"CCCCCCCCCCCCCCCCCC(=O)N[C@@H](C)C(=O)NCC(=O)N[C@@H](Cc1ccc(O)cc1)C(=O)N[C@@H](CC(C)C)C(=O)N[C@@H](CC(C)C)C(=O)NCC(=O)N[C@@H](CCCCN)C(=O)N[C@@H](CC(C)C)C(=O)N[C@@H](CC(C)C)C(=O)N[C@@H](CCCN)C(=O)N[C@@H](CCCN)C(=O)N[C@@H](CC(C)C)C(=O)N[C@@H](C)C(=O)N[C@@H](C)C(=O)N[C@@H](C)C(=O)N[C@@H](C)C(=O)N[C@@H](CC(C)C)C(=O)N[C@@H](CCCN)C(=O)N[C@@H](CCCN)C(=O)N[C@@H](CC(C)C)C(=O)N[C@@H](CC(C)C)C(N)=O [PF14, reference compound] (Stearoyl-AGYLLGKLL[Orn][Orn]LAAAAL[Orn][Orn]LL-NH2)",relative metabolic activity,"[4]; N/P 3, resazurin 24 h post-transfection",72%
same,relative metabolic activity,[4]; [6],13%
same,relative metabolic activity,[2]; [7],64%
same,stability against heparin decomplexation,"[1]; N/P 7, low heparin dose, Figure S8",least stable
CC[C@H](C)[C@H](NC(=O)[C@@H]1CSSC[C@H](NC(=O)[C@H](CCCCN)NC(C)=O)C(=O)N[C@@H](Cc2ccccc2)C(=O)N[C@@H](CCC(N)=O)C(=O)N[C@@H](Cc2c[nH]c3ccccc23)C(=O)N[C@@H](CCC(N)=O)C(=O)N[C@@H](CCCNC(=N)N)C(=O)N[C@@H](CC(N)=O)C(=O)N[C@@H](CCSC)C(=O)N[C@@H](CCCNC(=N)N)C(=O)N[C@@H](CCCCN)C(=O)N[C@@H](C(C)C)C(=O)N[C@@H](CCCNC(=N)N)C(=O)NCC(=O)N2CCC[C@H]2C(=O)N2CCC[C@H]2C(=O)N[C@@H](C(C)C)C(=O)N[C@@H](CO)C(=O)N1)C(=O)N[C@@H](CCCCN)C(=O)N[C@@H](CCCNC(=N)N)C(N)=O [Mono-hLF-WT] (Ac-KCFQWQRNMRKVRGPPVSCIKR-NH2; disulfide 2-19),relative metabolic activity,[4]; [6],83%
same,relative metabolic activity,[2]; [5],125%
same,stability of polyplexes against heparin-induced decomplexation,[1],"significantly lower stability of these polyplexes compared to PF14, except for the highest heparin dose"
"KCFQWLKNLKKVKALLVSCLKK [hLF-v2, lysine-substituted amphipathic hLF variant]",effect of oligomerization on uptake,[3]; 2 h incubation,pronounced increase in uptake
"OCFQWLONLOOVOALLVSCLOO (disulfide) [poly hLF-v3, polymeric hLF-v3]",uptake of Cy5-labeled mRNA polyplexes of amphipathic hLF variants,"[3]; 2 h incubation, live-cell confocal microscopy, serum present, Figure 5, four independent experiments",comparable to the one of PF14
same,relative metabolic activity,[2]; [7],~125%
CC(C)C[C@@H]1NC(=O)[C@H](C)NC(=O)[C@H](CCCCN)NC(=O)[C@H](C(C)C)NC(=O)[C@H](CCCCN)NC(=O)[C@H](CCCCN)NC(=O)[C@H](CC(C)C)NC(=O)[C@H](CC(N)=O)NC(=O)[C@H](CCCCN)NC(=O)[C@H](CC(C)C)NC(=O)[C@H](Cc2c[nH]c3ccccc23)NC(=O)[C@H](CCC(N)=O)NC(=O)[C@H](Cc2ccccc2)NC(=O)[C@@H](NC(=O)[C@@H](N)CCCCN)CSSC[C@@H](C(=O)N[C@@H](CC(C)C)C(=O)N[C@@H](CCCCN)C(=O)N[C@@H](CCCCN)C(N)=O)NC(=O)[C@H](CO)NC(=O)[C@H](C(C)C)NC(=O)[C@H](CC(C)C)NC1=O [mono-hLF-v2] (H-KCFQWLKNLKKVKALLVSCLKK-NH2; disulfide 2-19),relative metabolic activity,[2]; [7],~125%
"OCFQWQONMOOVOGPPVSCIOO [hLF-Orn, hLF analog with positively charged residues replaced by ornithines]","ratio of Poly hLF-x vs Mono-hLF-x, Corrected Total Cellular Fluorescence (Cy5)",[3],1.19 x
"OCFQWLONLOOVOALLVSCLOO [hLF-v3, ornithine-substituted amphipathic hLF variant]",effect of oligomerization on uptake,[3]; 2 h incubation,pronounced increase in uptake
